In ChEMBL document CHEMBL4308841, “Synthesis, in vitro antiproliferative activity, and kinase inhibitory effects of pyrazole-containing diarylureas and diarylamides” (Eur J Med Chem, 2018):

Tests used:
[1] = test system: CCRF-CEM; experiment: Growth inhibition of human CCRF-CEM cells assessed as cell growth at 0.1 uM incubated for 48 hrs by sulforhodamine B assay relative to control; format: functional; settings: read-out: Activity
[2] = test system: DU-145; experiment: Growth inhibition of human DU145 cells assessed as cell growth at 0.01 uM incubated for 48 hrs by sulforhodamine B assay relative to control; format: functional; settings: DU-145, 48 h, read-out: Activity
[3] = test system: PC-3; experiment: Growth inhibition of human PC3 cells assessed as cell growth at 1 uM incubated for 48 hrs by sulforhodamine B assay relative to control; format: functional; settings: PC-3, 48 h, read-out: Activity
[4] = test system: OVCAR-8; experiment: Growth inhibition of human OVCAR8 cells incubated for 48 hrs by sulforhodamine B assay; format: functional, cell-based; settings: OVCAR-8, 48 h
[5] = test system: LOX IMVI; experiment: Growth inhibition of human LOXIMVI cells assessed as cell growth at 0.01 uM incubated for 48 hrs by sulforhodamine B assay relative to control; format: functional; settings: read-out: Activity
[6] = test system: CCRF-CEM; experiment: Growth inhibition of human CCRF-CEM cells incubated for 48 hrs by sulforhodamine B assay; format: functional, cell-based
[7] = test system: 786-0; experiment: Growth inhibition of human 786-0 cells assessed as cell growth at 0.01 uM incubated for 48 hrs by sulforhodamine B assay relative to control; format: functional; settings: 786-0, 48 h, read-out: Activity
[8] = test system: CAKI-1; experiment: Growth inhibition of human Caki1 cells assessed as cell growth at 0.1 uM incubated for 48 hrs by sulforhodamine B assay relative to control; format: functional; settings: CAKI-1, 48 h, read-out: Activity
[9] = test system: MDA-MB-468; experiment: Growth inhibition of human MDA-MB-468 cells assessed as cell growth at 0.1 uM incubated for 48 hrs by sulforhodamine B assay relative to control; format: functional; settings: MDA-MB-468, 48 h, read-out: Activity
[10] = test system: SR; experiment: Growth inhibition of human SR cells assessed as cell growth at 1 uM incubated for 48 hrs by sulforhodamine B assay relative to control; format: functional; settings: read-out: Activity
[11] = test system: SF-268; experiment: Growth inhibition of human SF268 cells assessed as cell growth at 0.01 uM incubated for 48 hrs by sulforhodamine B assay relative to control; format: functional; settings: SF-268, 48 h, read-out: Activity
[12] = test system: SF-295; experiment: Growth inhibition of human SF295 cells assessed as cell growth at 1 uM incubated for 48 hrs by sulforhodamine B assay relative to control; format: functional; settings: SF-295, 48 h, read-out: Activity
[13] = test system: NCI-H23; experiment: Growth inhibition of human NCI-H23 cells assessed as cell growth at 0.01 uM incubated for 48 hrs by sulforhodamine B assay relative to control; format: functional; settings: NCI-H23, 48 h, read-out: Activity
[14] = test system: A498; experiment: Growth inhibition of human A498 cells assessed as cell growth at 100 uM incubated for 48 hrs by sulforhodamine B assay relative to control; format: functional; settings: A498, 48 h, read-out: Activity
[15] = test system: OVCAR-4; experiment: Growth inhibition of human OVCAR4 cells assessed as cell growth at 0.01 uM incubated for 48 hrs by sulforhodamine B assay relative to control; format: functional; settings: OVCAR-4, 48 h, read-out: Activity
[16] = test system: CCRF-CEM; experiment: Growth inhibition of human CCRF-CEM cells assessed as cell growth at 1 uM incubated for 48 hrs by sulforhodamine B assay relative to control; format: functional; settings: read-out: Activity
[17] = test system: ACHN; experiment: Growth inhibition of human ACHN cells assessed as cell growth at 100 uM incubated for 48 hrs by sulforhodamine B assay relative to control; format: functional; settings: read-out: Activity
[18] = test system: CAKI-1; experiment: Growth inhibition of human Caki1 cells assessed as cell growth at 0.01 uM incubated for 48 hrs by sulforhodamine B assay relative to control; format: functional; settings: CAKI-1, 48 h, read-out: Activity
[19] = test system: Hs-578T; experiment: Growth inhibition of human Hs578T cells assessed as cell growth at 0.1 uM incubated for 48 hrs by sulforhodamine B assay relative to control; format: functional; settings: read-out: Activity
[20] = test system: NCI-H23; experiment: Growth inhibition of human NCI-H23 cells assessed as cell growth at 100 uM incubated for 48 hrs by sulforhodamine B assay relative to control; format: functional; settings: NCI-H23, 48 h, read-out: Activity
[21] = test system: SN12C; experiment: Growth inhibition of human SN12C cells assessed as cell growth at 0.01 uM incubated for 48 hrs by sulforhodamine B assay relative to control; format: functional; settings: read-out: Activity
[22] = test system: MCF7; experiment: Growth inhibition of human MCF7 cells assessed as cell growth at 0.1 uM incubated for 48 hrs by sulforhodamine B assay relative to control; format: functional; settings: MCF7, 48 h, read-out: Activity
[23] = test system: NCI-H322M; experiment: Growth inhibition of human NCI-H322M cells assessed as cell growth at 0.1 uM incubated for 48 hrs by sulforhodamine B assay relative to control; format: functional; settings: read-out: Activity
[24] = test system: K562; experiment: Growth inhibition of human K562 cells incubated for 48 hrs by sulforhodamine B assay; format: functional, cell-based; settings: K562, 48 h
[25] = test system: UO-31; experiment: Growth inhibition of human UO31 cells assessed as cell growth at 0.01 uM incubated for 48 hrs by sulforhodamine B assay relative to control; format: functional; settings: UO-31, 48 h, read-out: Activity
[26] = test system: IGROV-1; experiment: Growth inhibition of human IGROV1 cells assessed as cell growth at 0.1 uM incubated for 48 hrs by sulforhodamine B assay relative to control; format: functional; settings: IGROV-1, 48 h, read-out: Activity
[27] = test system: ACHN; experiment: Growth inhibition of human ACHN cells assessed as cell growth at 0.1 uM incubated for 48 hrs by sulforhodamine B assay relative to control; format: functional; settings: read-out: Activity
[28] = test system: M14; experiment: Growth inhibition of human M14 cells assessed as cell growth at 0.01 uM incubated for 48 hrs by sulforhodamine B assay relative to control; format: functional; settings: M14, 48 h, read-out: Activity
[29] = test system: Hs-578T; experiment: Growth inhibition of human Hs578T cells incubated for 48 hrs by sulforhodamine B assay; format: functional, cell-based
[30] = test system: SK-OV-3; experiment: Growth inhibition of human SKOV3 cells assessed as cell growth at 0.01 uM incubated for 48 hrs by sulforhodamine B assay relative to control; format: functional; settings: SK-OV-3, 48 h, read-out: Activity
[31] = test system: MCF7; experiment: Growth inhibition of human MCF7 cells assessed as cell growth at 1 uM incubated for 48 hrs by sulforhodamine B assay relative to control; format: functional; settings: MCF7, 48 h, read-out: Activity
[32] = test system: NCI-H226; experiment: Growth inhibition of human NCI-H226 cells assessed as cell growth at 0.01 uM incubated for 48 hrs by sulforhodamine B assay relative to control; format: functional; settings: NCI-H226, 48 h, read-out: Activity
[33] = read-out: LC50 (the source's name)
[34] = read-out: pLC50 (the source's name) (converted)

`O=C(Nc1cccc(-n2cc(-c3ccncc3)c(-c3cc(O)cc(Cl)c3)n2)c1)c1cc(C(F)(F)F)cc(C(F)(F)F)c1` showed a growth at 0.1 µM [1] of 97%, a growth at 0.01 µM [2] of 104% and a growth at 1 µM [3] of 78%. For the same compound, the GI50 ([4]; read-out: GI50) was 3.58 µM, the CC50 [4, 33] was > 100 µM and the TGI ([4]; read-out: TGI) was > 100 µM. For the same compound, the GI50 ([4]; read-out: pGI50 (converted)) was 3.55 µM, the CC50 [4, 34] was > 100 µM and the TGI ([4]; read-out: pTGI (converted)) was > 100 µM. For the same compound, the growth at 0.01 µM [5] was 101%, the GI50 ([6]; read-out: GI50) was 2.58 µM and the CC50 [6, 33] was > 100 µM. For the same compound, the TGI ([6]; read-out: TGI) was > 100 µM, the GI50 ([6]; read-out: pGI50 (converted)) was 2.69 µM and the CC50 [6, 34] was > 100 µM. For the same compound, the TGI ([6]; read-out: pTGI (converted)) was > 100 µM, the growth at 0.01 µM [7] was 94% and the growth at 0.1 µM [8] was 98%. It also gave a growth at 0.1 µM [9] of 95%, a growth at 1 µM [10] of 71% and a growth at 0.01 µM [11] of 92%. The growth at 1 µM [12] was 59%, the growth at 0.01 µM [13] was 94% and the growth at 100 µM [14] was -2%. The growth at 0.01 µM [15] was 96%, the growth at 1 µM [16] was 56% and the growth at 100 µM [17] was 19%. The growth at 0.01 µM [18] was 97%, the growth at 0.1 µM [19] was 92% and the growth at 100 µM [20] was -10%. It also gave a growth at 0.01 µM [21] of 97%, a growth at 0.1 µM [22] of 92% and a growth at 0.1 µM [23] of 90%. The GI50 ([24]; read-out: GI50) was 3.24 µM, the LC50 ([24]; read-out: LC50) was > 100 µM and the TGI ([24]; read-out: TGI) was > 100 µM. The GI50 ([24]; read-out: pGI50 (converted)) was 3.24 µM, the LC50 ([24]; read-out: pLC50 (converted)) was > 100 µM and the TGI ([24]; read-out: pTGI (converted)) was > 100 µM. The growth at 0.01 µM [25] was 57%, the growth at 0.1 µM [26] was 98% and the growth at 0.1 µM [27] was 98%. The growth at 0.01 µM [28] was 100%, the GI50 ([29]; read-out: GI50) was 6.38 µM and the CC50 [29, 33] was > 100 µM. The TGI ([29]; read-out: TGI) was > 100 µM, the GI50 ([29]; read-out: pGI50 (converted)) was 6.31 µM and the CC50 [29, 34] was > 100 µM. The TGI ([29]; read-out: pTGI (converted)) was > 100 µM, the growth at 0.01 µM [30] was 102% and the growth at 1 µM [31] was 54%. The growth at 0.01 µM [32] was 95%.
